Read-outs that look alike come from different tables or passages of the source.
Assays:
S. aureus 08143 (MSSA) = experiment: Broth microdilution MIC; assay type: cell-based, Staphylococcus aureus; details: for MIC: S. aureus 08143 (MSSA)
Procedure: (§1) The protocol employed was inspired by Abedini et al. with some modifications. Products were solubilized in DMSO and serially diluted two-fold in MH medium. A bacterial suspension at 10^5 CFU/mL was added to obtain a final volume of 200 µL. Final phenolic product concentrations in wells ranged from 625 to 2.4 µg/mL (exception for lupulone for which dilutions were continued until 0.3 µg/mL). […] Plates were incubated overnight with stirring (60 rpm) at 37 °C.

S. aureus T25.10 (MRSA) = experiment: Broth microdilution MIC; assay type: cell-based, Staphylococcus aureus; details: for MIC: S. aureus T25.10 (MRSA)
Procedure: as §1

S. aureus T26A4 (MSSA) = experiment: Broth microdilution MIC; assay type: cell-based, Staphylococcus aureus; details: for MIC: S. aureus T26A4 (MSSA)
Procedure: as §1

S. aureus T28.1 (MRSA) [1] = experiment: Broth microdilution MIC; assay type: cell-based, Staphylococcus aureus
Procedure: as §1
For the following experiments, the MRSA strain T28.1, isolated from a pathological sample of osteitis, was used. It was previously characterized by DNA biochips, which allowed highlighting some β-lactamases and the SCC-mec genes confirming the methicillin resistance. Moreover, genes for enzymes and proteins involved in the capsule biosynthesis (capH5, capJ5 and capK5) and several intracellular adhesion proteins implicated in biofilm formation (icaA, icaC and icaD) were present.

Candida albicans 13203 = experiment: First screening, agar dilution MIC; assay type: cell-based
[2] = system: Candida albicans ATCC 10231; experiment: First screening, agar dilution MIC; assay type: cell-based
[3] = system: MG-63 cells (osteosarcoma); experiment: cells; assay type: cell-based, human; details: Homo sapiens, MG-63
Procedure: (§2) Several human cell lines were used for the cytotoxic bioassays: non-cancer lung fibroblasts (WI-38), hepatocellular carcinoma (Hep-G2), osteosarcoma (MG-63) and the mouse monocyte macrophage J774. Cells were seeded into wells of a 96-well microplate in a Gibco™ Dulbecco’s modified eagles medium (DMEM), except for MG-63 which were cultivated in a minimum essential medium (MEM) (ThermoFisher Scientific, Illkirch-Graffenstaden, France). Both media were enriched with 10% FBS (ThermoFisher Scientific, France) and some antibiotics (mixture penicillin/streptomycin 100 UI/mL, Sigma Aldrich). After one or two days at 37 °C (5% of CO2), wells were emptied by suction. Cells were then treated with hops compounds (xanthohumol, desmethylxanthohumol, humulone, lupulone) in DMSO at 0.2% in the culture medium, to obtain a final volume of 100 µL in wells (negative control: 0.2% DMSO). Camptothecin was used as a positive control. After 48 to 72 h exposure, culture medium was replaced by 10% of Alamar blue or 3-(4,5-dimethylthiazol-2-yl)-2,5-diphenyltetrazolium bromide (MTT) in the medium (ThermoFisher Scientific®, Illkirch, France) and plates were incubated the time necessary to the reaction. Results were measured respectively by fluorescence (excitation 530 nm and emission 590 nm) or by optical density at 550 nm. The IC50 of each product was determined using GraphPad Prism (version 5.01).

[4] = system: WI-38 cells (non-cancer lung fibroblasts); experiment: Cytotoxicity / antiproliferative effect; assay type: cell-based, human
Procedure: as §2

[5] = system: Hep-G2 cells (hepatocellular carcinoma); experiment: Cytotoxicity / antiproliferative effect; assay type: cell-based, human; details: Homo sapiens
Procedure: as §2

[6] = system: J774 cells (monocyte macrophage); experiment: Cytotoxicity / antiproliferative effect; assay type: cell-based, mouse
Procedure: as §2

S. aureus T28.1 (MRSA) [7] = experiment: Synergies by checkerboard method; assay type: cell-based, Staphylococcus aureus
Procedure: Checkerboard method was used to assess the potential co-action of xanthohumol, desmethylxanthohumol and lupulone between them or with some antibiotics. Antibiotics were previously selected on the basis of a first screening using E-tests (BioMérieux®, France). […] Each test was performed on a 96-well microplate using an 8-by-8 well configuration. […] Wells were filled with 100 µL of MH medium, 10 µL of each compound (DMSO for products and water for antibiotics) and 80 µL of a 10^5 CFU/mL bacterial suspension with appropriate solvent controls. […] The MIC of each product alone was checked at each test. Microplates were incubated overnight at 60 rpm and 37 °C.
After visual analysis, the combination with the highest activity was determined by the calculation of the fractional inhibitory concentration (FIC) index, interpreted as synergistic (FIC < 0.5), additive (0.5 ≤ FIC ≤ 1), indifferent (1 < FIC ≤ 4) or antagonist (FIC > 4).
FIC index=MIC A with B/MIC A alone+ MIC B with A/MIC B alone

[8] = system: Leishmania mexicana mexicana (Lmm); experiment: Antiparasitic activity, broth microdilution; assay type: cell-based
Procedure: (§3) Tbb were cultivated in HMI9 medium containing 10% heat-inactivated foetal bovine serum (FBS) (Sigma-Aldrich), […] L-cysteine and […] beta-mercaptoethanol at 37 °C (CO2 5%). Lmm (MHOM/BZ/84/BEL46) were cultivated in SDM-79 medium (Gibco) supplemented with 15% heat-inactivated FBS (Sigma-Aldrich) and 5 mg/L hemin at 28 °C (CO2 5%). Antiparasitic bioassays were performed as described by Bero et al.. Suramin (SUR) and pentamidine (PEN) were used as positive controls respectively. The hops compounds (xanthohumol, desmethylxanthohumol, humulone, lupulone) concentration that inhibits 50% of the cell viability (IC50) was determined using GraphPad Prism, version 5.01 (GraphPad Software, San Diego, CA, USA).

[9] = system: Trypanosoma brucei brucei (Tbb); experiment: Antiparasitic activity, broth microdilution; assay type: cell-based
Procedure: as §3

[10] = Staphylococcus aureus, read-out: MIC
[11] = Staphylococcus aureus, value in parentheses, read-out: MIC
[12] = Staphylococcus aureus, S. aureus T28.1 (MRSA), read-out: MIC
[13] = Staphylococcus aureus, S. aureus T28.1 (MRSA), value in parentheses, read-out: MIC
[14] = value in parentheses, read-out: IC50 (converted)
[15] = value in parentheses, read-out: MIC

Molecule: CC(C)=CCC1=C(O)C(O)(CC=C(C)C)C(=O)C(C(=O)C(C)C)=C1O (stereo in doubt) [Cohumulone, cohumulone]
- MIC (S. aureus 08143 (MSSA); [10]): 313 µg/mL
- MIC (S. aureus 08143 (MSSA); [11]): 899 µM
- MIC (S. aureus T25.10 (MRSA); [10]): 313 µg/mL
- MIC (S. aureus T25.10 (MRSA); [11]): 899 µM
- MIC (S. aureus T26A4 (MSSA); [10]): 313 µg/mL
- MIC (S. aureus T26A4 (MSSA); [11]): 899 µM
- MIC (S. aureus T28.1 (MRSA) [1]; [12]): 156 µg/mL
- MIC (S. aureus T28.1 (MRSA) [1]; [13]): 448 µM

Molecule: C[C@@H]1[C@H](O)[C@@H](C)/C=C/C=C/C=C/C=C/C=C/C=C/C=C/[C@H](O[C@@H]2O[C@H](C)[C@@H](O)[C@H](N)[C@@H]2O)C[C@@H]2O[C@](O)(C[C@@H](O)C[C@@H](O)[C@H](O)CC[C@@H](O)C[C@@H](O)CC(=O)O[C@H]1C)C[C@H](O)[C@H]2C(=O)O [AMB, Amphotericin B]
- Susceptibility to AMB (Candida albicans 13203): S (Amphotericin B (AMB) S ≤ 1)
- Susceptibility to AMB [2]: S (Amphotericin B (AMB) S ≤ 1)

Molecule: CC[C@@]1(O)C(=O)OCc2c1cc1n(c2=O)Cc2cc3ccccc3nc2-1 [CAMP, camptothecin]
- IC50 ([3]; read-out: IC50 ± SD): 4.4 ± 1.5 µg/mL
- IC50 [3, 14]: 12.6 µM
- IC50 ([4]; Homo sapiens, read-out: IC50 ± SD): 0.06 µg/mL
- IC50 ([4]; Homo sapiens, value in parentheses, read-out: IC50 (converted)): 0.17 µM
- IC50 ([5]; HepG2, read-out: IC50 ± SD): 0.4 ± 0.2 µg/mL
- IC50 ([5]; HepG2, value in parentheses, read-out: IC50 (converted)): 1.15 µM
- IC50 ([6]; Mus musculus, read-out: IC50 ± SD): 0.01 µg/mL
- IC50 ([6]; Mus musculus, value in parentheses, read-out: IC50 (converted)): 0.03 µM

Molecule: CC(C)=CCC1=C(O)C(CC=C(C)C)(CC=C(C)C)C(=O)C(C(=O)C(C)C)=C1O [Colupulone, colupulone]
- MIC (S. aureus 08143 (MSSA); [10]): 78 µg/mL
- MIC (S. aureus 08143 (MSSA); [11]): 195 µM
- MIC (S. aureus T25.10 (MRSA); [10]): 78 µg/mL
- MIC (S. aureus T25.10 (MRSA); [11]): 195 µM
- MIC (S. aureus T26A4 (MSSA); [10]): 39 µg/mL
- MIC (S. aureus T26A4 (MSSA); [11]): 97.5 µM
- MIC (S. aureus T28.1 (MRSA) [1]; [12]): 39 µg/mL
- MIC (S. aureus T28.1 (MRSA) [1]; [13]): 97.5 µM

Molecule: OC(Cn1cncn1)(Cn1cncn1)c1ccc(F)cc1F [FLC, Fluconazole]
- Susceptibility to FLC (Candida albicans 13203): R (R > 4)
- Susceptibility to FLC [2]: S (Fluconazole (FLC) S ≤ 2)

Molecule: COc1cc(O)c(CC=C(C)C)c2c1C(=O)CC(c1ccc(O)cc1)O2 (stereo not shown) [Isoxanthohumol, isoxanthohumol]
- MIC (S. aureus T28.1 (MRSA) [1]; Staphylococcus aureus, strain MRSA T28.1, read-out: MIC): 39 µg/mL

Molecule: Cc1onc(-c2ccccc2)c1C(=O)N[C@@H]1C(=O)N2[C@@H]1SC(C)(C)[C@@H]2C(=O)O [OXA, oxacillin]
- Susceptibility to OXA (S. aureus 08143 (MSSA); S. aureus 08143): S (S ≤ 2 µg/mL)
- Susceptibility to OXA (S. aureus T25.10 (MRSA); S. aureus T25.10): R (R ≥ 4 µg/mL)
- Susceptibility to OXA (S. aureus T26A4 (MSSA); S. aureus T26A4): S (S ≤ 2 µg/mL)
- MIC for oxacillin in combination (S. aureus T28.1 (MRSA) [7]; in the presence of lupulone): < 2 µg/mL
- MIC for oxacillin in combination (S. aureus T28.1 (MRSA) [7]; in the presence of xanthohumol): < 2 µg/mL
- Susceptibility to OXA (S. aureus T28.1 (MRSA) [1]; S. aureus T28.1): R (R ≥ 4 µg/mL)

Molecule: N=C(N)c1ccc(OCCCCCOc2ccc(C(=N)N)cc2)cc1 [PEN, pentamidine]
- IC50 ([8]; Leishmania mexicana, read-out: IC50 (converted)): 0.07 µg/mL
- IC50 ([8]; Leishmania mexicana, value in parentheses, read-out: IC50 (converted)): 0.21 µM

Molecule: Cc1ccc(C(=O)Nc2ccc(S(=O)(=O)O)c3cc(S(=O)(=O)O)cc(S(=O)(=O)O)c23)cc1NC(=O)c1cccc(NC(=O)Nc2cccc(C(=O)Nc3cc(C(=O)Nc4ccc(S(=O)(=O)O)c5cc(S(=O)(=O)O)cc(S(=O)(=O)O)c45)ccc3C)c2)c1 [SUR, suramin]
- IC50 ([9]; Trypanosoma brucei, read-out: IC50 (converted)): 0.05 µg/mL
- IC50 ([9]; Trypanosoma brucei, value in parentheses, read-out: IC50 (converted)): 0.038 µM

Molecule: C[C@@H](c1ncncc1F)[C@](O)(Cn1cncn1)c1ccc(F)cc1F [VRC, Voriconazole]
- Susceptibility to VRC (Candida albicans 13203): R (R > 0.12)
- Susceptibility to VRC [2]: S (Voriconazole (VRC) S ≤ 0.12)

Molecule: CO[C@H]1/C=C/O[C@@]2(C)Oc3c(C)c(O)c4c(O)c(c(/C=N/N5CCN(C)CC5)c(O)c4c3C2=O)NC(=O)/C(C)=C\C=C\[C@H](C)[C@H](O)[C@@H](C)[C@@H](O)[C@@H](C)[C@H](OC(C)=O)[C@@H]1C [rifampicin]
- times more active when combined (S. aureus T28.1 (MRSA) [7]; rifampicin combined with xanthohumol): 8 times

Molecule: humulone
- IC50 ± SD [4]: 10.5 ± 2.3 µg/mL
- IC50 [4, 14]: 29 µM
- MIC (S. aureus 08143 (MSSA)): 156 µg/mL
- MIC (S. aureus 08143 (MSSA); [15]): 430.9 µM
- MIC (S. aureus T25.10 (MRSA)): 156 µg/mL
- MIC (S. aureus T25.10 (MRSA); [15]): 430.9 µM
- MIC (S. aureus T26A4 (MSSA)): 156 µg/mL
- MIC (S. aureus T26A4 (MSSA); [15]): 430.9 µM
- IC50 [9]: 10.9 ± 0.8 µg/mL
- IC50 [9, 14]: 30.1 µM
- IC50 [8]: 28.8 ± 1.5 µg/mL
- IC50 [8, 14]: 77.9 µM
- MIC (S. aureus T28.1 (MRSA) [1]; S. aureus T28.1 (MRSA)): 78 µg/mL
- MIC (S. aureus T28.1 (MRSA) [1]; S. aureus T28.1 (MRSA), value in parentheses, read-out: MIC): 215.5 µM
- IC50 ± SD [6]: 11.5 ± 0.3 µg/mL
- IC50 [6, 14]: 31.7 µM

Source: article PMC6472001, “Phenolic Compounds from Humulus lupulus as Natural Antimicrobial Products: New Weapons in the Fight against Methicillin Resistant Staphylococcus aureus, Leishmania mexicana and Trypanosoma brucei Strains” (Molecules, 2019)
